The results in this text go back to PubChem BioAssay (NCI).

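Protocol summary: plate cells (96-well), add compound at 5 concentrations, incubate 48 h, interpolate endpoints linearly. At the TGI there is no net growth.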

The first test concerns UO-31 renal. The experiment in a line: inhibition of tumour cell growth, NCI panel, 48 h.
`C=CCC(CCC(C)=O)(C(=O)OCC)C(=O)OCC`: the TGI was above 100 µM.

`COC(=O)[C@H](Cc1ccccc1)NC(=O)c1ccc(CNC(=O)/C=C/c2csc(-c3ccccc3)n2)cc1` displayed a TGI of 27.3 µM.

`N#Cc1ccccc1OCCOc1ccccc1C#N` came in with a TGI above 100 µM.

For `CCN(/C=C1/C(=O)C(c2ccccc2)N(c2ccccc2)C1=O)CC` (configuration not stated), the TGI is above 10 µM.

Take `COc1ccc2nc3c(c(N)c2c1)C1CCC3C1(C)C` (configuration not stated): the TGI was above 100 µM.

For the molecule `O=c1cc(Nc2cccc(O)c2)[nH]c(=O)[nH]1`, the TGI is above 100 µM.

The molecule `O=C(Nn1c(-c2ccccc2)nc2ccccc2c1=O)c1ccc(Cl)cc1` gave a TGI above 100 µM.

In the case of `CC(=O)c1ccc(N=NN2CCCC2)cc1`, the TGI was above 100 µM.

`CSc1nncc(-c2cc3c(c(SC)n2)CCCC3)n1` had a TGI above 100 µM.

On to `Cc1cc(N(CCC#N)CCC#N)ccc1/C(N=Nc1ccccc1)=N\NC(=O)c1cc(Cl)ccc1O`, for which the TGI was found to be 41.3 µM.

`COC(=O)[C@@H]1CO[C@H](C(C)(C)C)N1C(=O)N1C=CC(=O)C[C@H]1C` registered a TGI above 100 µM.

Take `NCCOc1cccc(C2(N3CCCCC3)CCCCC2)c1`: the TGI was 28.2 µM.

`Cc1ccc(N=N/C(=N/NC(=O)c2ccccc2)c2ccc(N(CCC#N)CCC#N)cc2C)cc1` yielded a TGI above 100 µM.

Molecule `NC1=NC2(COC(c3ccccc3)(c3ccccc3)c3ccccc3)OC(COC(c3ccccc3)(c3ccccc3)c3ccccc3)C(O)C2O1` (configuration not stated) displayed a TGI above 100 µM.

On to `CCCCCCCCCCCCCCCCCCNc1ccn(C2OC(COP(=O)(O)OCC3OC(n4ccc(N)nc4=O)C(O)C3O)C(O)C2O)c(=O)n1` (configuration not stated), for which the TGI is above 100 µM.

The molecule `Cc1ccc(S[C@@](C=O)(NC(=O)OCc2ccccc2)C(F)(F)F)cc1` showed a TGI of 36.6 µM.

In turn, `CCOc1cnc(C(O)(c2ccccc2)c2ccccc2)o1` gave a TGI above 100 µM.

On to `CC(=O)c1ccc(Nc2c3c(nc4ccccc24)CCCC3)cc1`, for which the TGI is above 67.1 µM.

As to `CC(C)(C)OC(=O)N(CCCCNC(=O)C(F)(F)F)CCCNC(=O)C(F)(F)F`, the TGI was above 100 µM.

`C=C1CC[C@@H](CCC2CCC3(OC2)O[C@]2(O)CC[C@@]3(C)OC2(C)C)C(C)(C)[C@H]1C/C=C1\CCOC1=O` (some centres not stated) showed a TGI above 100 µM.

`C=CCON(C(=O)OC(C)(C)C)C(C)(C)C` yielded a TGI above 100 µM.

The test system of a further test is A498 renal. The experiment in a line: inhibition of tumour cell growth, NCI panel, 48 h.
`C=CCC(CCC(C)=O)(C(=O)OCC)C(=O)OCC` showed a TGI above 100 µM.

Consider `COC(=O)[C@H](Cc1ccccc1)NC(=O)c1ccc(CNC(=O)/C=C/c2csc(-c3ccccc3)n2)cc1`, for which the TGI stood at 34.5 µM.

Turning to `N#Cc1ccccc1OCCOc1ccccc1C#N`, the TGI was above 100 µM.

On to `CCN(/C=C1/C(=O)C(c2ccccc2)N(c2ccccc2)C1=O)CC` (configuration not stated), for which the TGI is above 10 µM.

The molecule `COc1ccc2nc3c(c(N)c2c1)C1CCC3C1(C)C` (configuration not stated) gave a TGI of 70.7 µM.

`O=c1cc(Nc2cccc(O)c2)[nH]c(=O)[nH]1` had a TGI above 100 µM.

For `O=C(Nn1c(-c2ccccc2)nc2ccccc2c1=O)c1ccc(Cl)cc1`, the TGI is above 100 µM.

As for `CC(=O)c1ccc(N=NN2CCCC2)cc1`, the TGI was 37.3 µM.

In the case of `CSc1nncc(-c2cc3c(c(SC)n2)CCCC3)n1`, the TGI is above 100 µM.

`Cc1nc2sc3cccc(Cl)c3n2c(=O)c1N=Nc1ccc(Cl)cc1`: the TGI amounted to 67.6 µM.

In turn, `Cc1cc(N(CCC#N)CCC#N)ccc1/C(N=Nc1ccccc1)=N\NC(=O)c1cc(Cl)ccc1O` had a TGI above 100 µM.

For the molecule `COC(=O)[C@@H]1CO[C@H](C(C)(C)C)N1C(=O)N1C=CC(=O)C[C@H]1C`, the TGI is above 100 µM.

`NCCOc1cccc(C2(N3CCCCC3)CCCCC2)c1`: the TGI was 98.6 µM.

`Cc1ccc(N=N/C(=N/NC(=O)c2ccccc2)c2ccc(N(CCC#N)CCC#N)cc2C)cc1` had a TGI of 88.1 µM.

`NC1=NC2(COC(c3ccccc3)(c3ccccc3)c3ccccc3)OC(COC(c3ccccc3)(c3ccccc3)c3ccccc3)C(O)C2O1` (configuration not stated) registered a TGI above 100 µM.

Turning to `CCCCCCCCCCCCCCCCCCNc1ccn(C2OC(COP(=O)(O)OCC3OC(n4ccc(N)nc4=O)C(O)C3O)C(O)C2O)c(=O)n1` (configuration not stated), the TGI was above 100 µM.

`Cc1ccc(S[C@@](C=O)(NC(=O)OCc2ccccc2)C(F)(F)F)cc1` displayed a TGI above 100 µM.

`CCOc1cnc(C(O)(c2ccccc2)c2ccccc2)o1`: the TGI was above 100 µM.

As to `CC(=O)c1ccc(Nc2c3c(nc4ccccc24)CCCC3)cc1`, the TGI was above 59.7 µM.

Consider `O=C1CC(O)c2cscc21` (configuration not stated), for which the TGI was above 100 µM.

In turn, `CC(C)(C)OC(=O)N(CCCCNC(=O)C(F)(F)F)CCCNC(=O)C(F)(F)F` showed a TGI above 100 µM.

On to `C=C1CC[C@@H](CCC2CCC3(OC2)O[C@]2(O)CC[C@@]3(C)OC2(C)C)C(C)(C)[C@H]1C/C=C1\CCOC1=O` (some centres not stated), for which the TGI worked out at 34.9 µM.

Molecule `C=CCON(C(=O)OC(C)(C)C)C(C)(C)C` showed a TGI above 100 µM.

The next test deals with BT-549 breast. In words: inhibition of tumour cell growth, NCI panel, 48 h.
Consider `C=CCC(CCC(C)=O)(C(=O)OCC)C(=O)OCC`, for which the TGI is above 100 µM.

As to `COC(=O)[C@H](Cc1ccccc1)NC(=O)c1ccc(CNC(=O)/C=C/c2csc(-c3ccccc3)n2)cc1`, the TGI is above 100 µM.

For `N#Cc1ccccc1OCCOc1ccccc1C#N`, the TGI was above 100 µM.

`CCN(/C=C1/C(=O)C(c2ccccc2)N(c2ccccc2)C1=O)CC` (configuration not stated) showed a TGI above 10 µM.

Molecule `COc1ccc2nc3c(c(N)c2c1)C1CCC3C1(C)C` (configuration not stated) returned a TGI above 100 µM.

As to `O=c1cc(Nc2cccc(O)c2)[nH]c(=O)[nH]1`, the TGI is above 100 µM.

Turning to `O=C(Nn1c(-c2ccccc2)nc2ccccc2c1=O)c1ccc(Cl)cc1`, the TGI is above 100 µM.

`CC(=O)c1ccc(N=NN2CCCC2)cc1` registered a TGI above 100 µM.

For `CSc1nncc(-c2cc3c(c(SC)n2)CCCC3)n1`, the TGI is above 100 µM.

The molecule `Cc1nc2sc3cccc(Cl)c3n2c(=O)c1N=Nc1ccc(Cl)cc1` yielded a TGI above 100 µM.

On to `Cc1cc(N(CCC#N)CCC#N)ccc1/C(N=Nc1ccccc1)=N\NC(=O)c1cc(Cl)ccc1O`, for which the TGI is 57 µM.

`COC(=O)[C@@H]1CO[C@H](C(C)(C)C)N1C(=O)N1C=CC(=O)C[C@H]1C` had a TGI above 100 µM.

Turning to `NCCOc1cccc(C2(N3CCCCC3)CCCCC2)c1`, the TGI was found to be 40 µM.

Molecule `Cc1ccc(N=N/C(=N/NC(=O)c2ccccc2)c2ccc(N(CCC#N)CCC#N)cc2C)cc1` gave a TGI above 100 µM.

For `NC1=NC2(COC(c3ccccc3)(c3ccccc3)c3ccccc3)OC(COC(c3ccccc3)(c3ccccc3)c3ccccc3)C(O)C2O1` (configuration not stated), the TGI is above 100 µM.

`CCCCCCCCCCCCCCCCCCNc1ccn(C2OC(COP(=O)(O)OCC3OC(n4ccc(N)nc4=O)C(O)C3O)C(O)C2O)c(=O)n1` (configuration not stated) had a TGI above 87.9 µM.

`Cc1ccc(S[C@@](C=O)(NC(=O)OCc2ccccc2)C(F)(F)F)cc1` displayed a TGI of 81.8 µM.

In turn, `CCOc1cnc(C(O)(c2ccccc2)c2ccccc2)o1` yielded a TGI above 100 µM.

In turn, `CC(=O)c1ccc(Nc2c3c(nc4ccccc24)CCCC3)cc1` registered a TGI above 41.3 µM.

For `O=C1CC(O)c2cscc21` (configuration not stated), the TGI is above 100 µM.

`CC(C)(C)OC(=O)N(CCCCNC(=O)C(F)(F)F)CCCNC(=O)C(F)(F)F` displayed a TGI above 100 µM.

Molecule `C=C1CC[C@@H](CCC2CCC3(OC2)O[C@]2(O)CC[C@@]3(C)OC2(C)C)C(C)(C)[C@H]1C/C=C1\CCOC1=O` (some centres not stated) displayed a TGI of 49.1 µM.

Consider `C=CCON(C(=O)OC(C)(C)C)C(C)(C)C`, for which the TGI was above 100 µM.
